Values joined by “and” are separate entries in the source; they are usually repeats but may differ in a detail not shown here. Equal values may be shown once.
What was measured:
Male Fischer F-344 rats = test: Stress-induced hyperthermia (in rat); format: in vivo; conditions: for stress-induced hyperthermia (T2−T1): in °C
Male NIH-Swiss mice = test: Mouse forced swim test; format: in vivo; conditions: for immobility in mouse forced swim test, Mean: 30 min
From the text: This test evaluates the effect of test compound on mice mobility as a measure of antidepressant effect. The less immobility compared to vehicle, the more pronounced the antidepressant-like effect.
Male, NIH-Swiss mice (25-30 g) (Harlan Sprague-Dawley, Indianapolis, Ind., USA) are housed in a vivarium for at least one week prior to use with water and rodent chow freely available during this acclimation period. Animals are removed from the vivarium to the testing area in their home cages and allowed to adapt to the new environment for at least one hour before testing.
Mice are placed in clear plastic cylinders (diameter: 10 cm; height: 25 cm) filled with 6 cm of water (22-25° C.) for six minutes. The duration of immobility during the last four minutes of the six minutes test period is scored. A mouse is recorded as immobile when floating motionless or making only those movements necessary to keep its head above water.
The test compound is administered p.o. 1 hour prior to testing at 1.0 mg/kg, 3.0 mg/kg and 10.0 mg/kg, n of 8 per group in a vehicle of 5 ml of sterile water and 30 ml of diluted (10×) lactic acid. Imipramine is evaluated as a positive control, 15 mg/kg: p, 30 min. prior to testing n of 4.
A second study is carried out evaluating 1 and 3 mg/kg doses of the compound of Example 1A alone and in combination with 5 mg/kg of imipramine. Imipramine alone is evaluated at 5 and 15 mg/kg doses and a vehicle control is included in the study. For the combination studies, the compound of Example 1A is administered p.o. 30 minutes prior to administration of imipramine i.p. and the test initiated 30 minutes following imipramine administration. An n of 8 per group is evaluated for all groups. For the evaluations of the compound of Example 1A alone, testing is initiated 60 minutes following administration and testing of imipramine only treated animals is initiated 30 minutes following administration.

Sprague Dawley rats = test: Prepulse inhibition, reversal of morphine induced disruption of PPI; format: in vivo, rat; conditions: vehicle/20 mg/kg morphine sc; 20 mg/kg
[1] = Study 1, positive control 10 mg/kg

CNC1=Nc2ccc(Cl)cc2C(c2ccccc2)=[N+]([O-])C1 [CDP, chlordiazepoxide, reference compound]
stress-induced hyperthermia (T2−T1) (Male Fischer F-344 rats; Study 2, 1 mg/kg CDP alone, po): 0.75±0.06

Cc1nc(C#Cc2cccnc2)cs1 [MTEP, 3-[(2-methyl-1,3-thiazol-4-yl)ethynyl]pyridine, reference compound]
baseline body temperatures (Male Fischer F-344 rats; [1]): without affecting
reduction in stress-induced hyperthermia, in words (Male Fischer F-344 rats; Study 1, positive control 10 mg/kg, p<0.05): significantly reduces
stress-induced hyperthermia (T2−T1) (Male Fischer F-344 rats; [1]): 0.42±0.09

CN(C)CCCN1c2ccccc2CCc2ccccc21 [Imipramine, imipramine, reference compound]
immobility in mouse forced swim test, Mean (Male NIH-Swiss mice; Imipramine 5 mg/kg i.p.): 161.94 s
immobility in mouse forced swim test, Mean (Male NIH-Swiss mice; Imipramine 15 mg/kg i.p.): 61.70 s
antidepressant effect, in words (Male NIH-Swiss mice; imipramine 15 mg/kg, over vehicle control, p<0.05): statistically significant antidepressant effect

CN1CC[C@]23c4c5ccc(O)c4O[C@H]2[C@@H](O)C=C[C@H]3[C@H]1C5 [morphine, reference compound]
% Inhibition (PPI), individual rats (Sprague Dawley rats): 26.99% and −12.64% and 34.65% and 32.59% and 5.49% and 49.11% and 53.95% and 44.81% and 35.01% and −9.49% and 51.85% and 24.04% and 4.72% and 50.03%

— patent US8173695B2, “Kappa selective opioid receptor antagonist” (Eli Lilly and Company, priority 2008, dated 2012)
